Experimental data from US9867375B2, “Methods of pest control in soybean” (Syngenta Participations AG, priority 2012, dated 2018).

Tested on: Euschistus heros
Test: Euschistus heros (Neotropical brown stink bug) contact/feeding activity on sprayed soybean plants
Type: in vivo
Conditions: for control at low application rates: sprayed soybean plants, N-2 nymphs; for pest or weed control at 50 ppm: Euschistus heros, 120 h, sprayed 2 week old soybean plants, 10 N-2 nymphs, evaluation 5 days after infestation on mortality and growth effects
Protocol: Euschistus heros (Neotropical brown stink bug) (contact/feeding activity) 2 week old soybean plants are sprayed in a turn table spray chamber with the diluted spray solutions. After drying, 2 soybean seeds are added and plants are infested with 10 N-2 nymphs of the neotropical brown stink bug Euschistus heros in plastic test boxes. Boxes are incubated in a climate chamber at 25° C. and 60% RH. Evaluation is done 5 days after infestation on mortality and growth effects.

Structure (SMILES) | control at low application rates | pest or weed control at 50 ppm
N#Cc1cc(C2=NOC(c3cc(Cl)c(F)c(Cl)c3)(C(F)(F)F)C2)ccc1-n1cncn1 (stereo not drawn) [Compound C3] | excellent control | 
N#Cc1cc(C2=NCC(c3cc(Cl)c(Cl)c(Cl)c3)(C(F)(F)F)C2)ccc1-n1cncn1 (stereo not drawn) [Compound C2, 2-(1,2,4-triazol-1-yl)-5-[3-(3,4,5-trichlorophenyl)-3-(trifluoromethyl)-2,4-dihydropyrrol-5-yl]benzonitrile] | excellent control | 
CC(=O)NCc1ccc(C2=NCC(c3cc(Cl)cc(Cl)c3)(C(F)(F)F)C2)cc1Br (stereo not drawn) [Compound A5, N-{2-bromo-4-[4-(3,5-dichlorophenyl)-4-trifluoromethyl-4,5-dihydro-3H-pyrrol-2yl]-benzyl}acetamide] |  | ≥ 50%
N#Cc1cnn(-c2ccc(C3=NOC(c4cc(Cl)c(F)c(Cl)c4)(C(F)(F)F)C3)cc2C#N)c1 (stereo not drawn) [Compound D1] | excellent control | 
CC(C)C(=O)NCc1ccc(C2=NOC(c3cc(Cl)cc(Cl)c3)(C(F)(F)F)C2)cc1Cl (stereo not drawn) [Compound A2] |  | ≥ 50%
CC(=O)NCc1ccc(N2CCC(c3cc(Cl)cc(Cl)c3)(C(F)(F)F)C2)cc1C (stereo not drawn) [Compound A4, N-{4-[3-(3,5-dichlorophenyl)-3-(trifluoromethyl)pyrrolidin1-yl]-2-methyl-benzyl)acetamide] |  | ≥ 50%
